Columns and labels:
IOMM-LEE = experiment: Growth inhibition of meningioma cell line IOMM-LEE; assay type: cell-based
Protocol: (§1) FIGS. 10A-B. Testing of oligo-benzamide (TK 11) for growth inhibitor of two meningioma brain cancer cell lines. (FIG. 10A) Results for cell line CH157. (FIG. 10B) Results for cell line IOMM-LEE.
(§2) Cell proliferation rates were measured by using MTT Cell Viability Assay in 96-well micro plates. Model cells were seeded in 96-well plates (2×10^3 cells/well) in DMEM or RPMI medium containing 10% serum. After an overnight incubation, cells were treated with varying concentrations of oligo-benzamides for 72 h and growth inhibition was determined by using traditional MTT assay (Sigma) following manufacturer's instructions.

CH157 = experiment: Growth inhibition of meningioma cell line CH157; assay type: cell-based
Protocol: as §1, §2

[1] = test system: Tamoxifen therapy resistant MCF7-HER2 and MCF7-TAM cells; experiment: Therapy resistance assay (MTT), hormonal therapy resistant cells; assay type: cell-based, Human; details: tamoxifen (10^-7M) containing media, P<0.05
Protocol: FIG. 13. Testing of oligo-benzamides for growth inhibition of hormonal therapy resistant cells.
Tamoxifen (Tam) therapy resistant MCF7-HER2 and MCF7-TAM cells were cultured in tamoxifen (10^-7M) containing media in the presence or absence of TK11 and proliferation was measured by MTT assay (Sigma) following manufacturer's instructions.

[2] = test system: IOSE immortalized normal ovarian cells; experiment: Growth of normal ovarian cells; assay type: cell-based
Protocol: FIG. 11. Testing of oligo-benzamides on growth of normal ovarian cells. IOSE are immortalized normal ovarian cells.
as §2

[3] = test system: prostate cancer cell line; experiment: Growth inhibition of prostate cancer cell line; assay type: cell-based
LN229 = experiment: Growth inhibition of brain cancer cell line LN229 (MTT); assay type: cell-based, Human; details: 72 h
Protocol: (§3) FIGS. 8A-B. Testing of oligo-benzamides for growth inhibitor of two brain cancer cell lines. (FIG. 8A) Results for cell line U87. (FIG. 8B) Results for cell line LN229. […] Human Breast cancer cells MCF7, ZR75, glioma cells U87, T98G, LN229, and the ovarian cancer cell line SKOV3 were obtained from the American Type Culture Collection (ATCC) and were maintained using ATCC recommended media. Cell proliferation rates were measured by using MTT Cell Viability Assay in 96-well micro plates. Model cells were seeded in 96-well plates (2×10^3 cells/well) in DMEM or RPMI medium containing 10% serum. After an overnight incubation, cells were treated with varying concentrations of oligo-benzamides for 72 h and growth inhibition was determined by using traditional MTT assay (Sigma) following manufacturer's instructions.

[4] = biological target: T1, PELP1 interaction with estrogen receptor (Homo sapiens, UniProt P03372); experiment: PELP1-ER interaction, GST pull down assay; assay type: binding; details: TK11 500 nM, purified ER, GST-PELP1, E2
T1 construct: purchased
T1 sequence (P03372 1-595): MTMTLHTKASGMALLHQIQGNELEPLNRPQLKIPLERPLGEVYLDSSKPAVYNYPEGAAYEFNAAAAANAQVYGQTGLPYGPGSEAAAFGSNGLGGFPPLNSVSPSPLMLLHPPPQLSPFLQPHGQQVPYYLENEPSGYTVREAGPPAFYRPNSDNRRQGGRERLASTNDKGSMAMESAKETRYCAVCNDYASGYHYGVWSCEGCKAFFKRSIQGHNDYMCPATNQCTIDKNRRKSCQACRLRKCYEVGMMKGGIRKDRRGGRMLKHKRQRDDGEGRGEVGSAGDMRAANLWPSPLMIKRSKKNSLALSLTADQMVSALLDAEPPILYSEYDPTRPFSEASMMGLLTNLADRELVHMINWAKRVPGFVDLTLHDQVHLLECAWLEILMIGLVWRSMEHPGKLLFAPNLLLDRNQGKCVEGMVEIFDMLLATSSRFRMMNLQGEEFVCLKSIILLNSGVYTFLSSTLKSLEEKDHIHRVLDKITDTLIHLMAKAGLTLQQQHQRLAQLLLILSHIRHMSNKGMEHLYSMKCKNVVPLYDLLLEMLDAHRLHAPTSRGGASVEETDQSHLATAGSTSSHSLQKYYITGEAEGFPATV
Protocol: FIGS. 12A-C. Testing of oligo-benzamides for growth inhibition of estrogen driven proliferation. (FIG. 12A) Structure of peptidomimetics used in the assays. (FIG. 12B) Effect of tribenzamimetics on E2 driven proliferation using ZR75 model cells. (FIG. 12C) Effect of tribenzamides on PELP1-ER interaction. *, P<0.05.
Purified commercially available estrogen receptor (ER) was incubated with biotin-con or biotin-TK11 peptidomimetic in the presence of estrogen (E2). TK11 interaction with ER was determined using avidin immunoprecipitation (IP) followed by western blotting. For some experiments, MCF-7 cells were stimulated with estrogen (E2), nuclear lysates were prepared and incubated with biotin-con or biotin-TK11 peptidomimetic. TK11 interactions with endogenous ER were analyzed by avidin IP. For some experiments, purified ER, GST-PELP1 was incubated in the presence of E2 and ability of control or TK11 (500 nM) to compete PELP1 interaction with ER was determined GST pull down assay.

[5] = test system: triple negative breast cancer cell line; experiment: Growth inhibition of breast cell lines (MTT); assay type: cell-based; details: 72 h
Protocol: FIG. 6. Testing of oligo-benzamides for growth inhibition of breast cell lines.
as §2

ovarian cancer cell line = experiment: Growth inhibition of ovarian cell lines (MTT); assay type: cell-based; details: 72 h
Protocol: FIG. 7. Testing of oligo-benzamides for growth inhibition of ovarian cell lines.
Human Breast cancer cells MCF7, ZR75, glioma cells U87, T98G, LN229, and the ovarian cancer cell line SKOV3 were obtained from the American Type Culture Collection (ATCC) and were maintained using ATCC recommended media.
as §2

U87 = experiment: Growth inhibition of brain cancer cell line U87 (MTT); assay type: cell-based, Human; details: 72 h
Protocol: as §3

[6] = test system: ARE activity in CWR22v1 cells (ARwt and ARv7); experiment: ARE-luciferase reporter in CWR22v1 cells; assay type: cell-based; details: 10 μM casodex or MDV3100, 48 h, without androgen (EtOH)
Protocol: FIG. 4. Effect of T6 on basal level of ARE expression in CWR22v1 cells. CWR22v1 cells were transiently transfected with ARE-luciferase. Cells were maintained for 48 h without (EtOH) and in the presence of 100 nM of peptidomimetic or volume equivalent of vehicle (DMSO) control or 10 μM of casodex or MDV3100.

ARv7 regulated genes = experiment: Q-PCR of ARv7 regulated genes; assay type: cell-based; details: data not shown
Source text: Finally, confirmation of the role of T6 in modulating ARv7 driven transcription was obtained by evaluation of the gene expression of ARv7 regulated genes.

Row | Structure (SMILES) | growth inhibition, meningioma cell line IOMM-LEE (specificity versus prostate cancer cell line) (IOMM-LEE) | growth inhibition, meningioma cell line CH157 (specificity versus prostate cancer cell line) (CH157) | growth of hormonal therapy resistant cells [1] | potency in inhibiting growth of normal ovarian cells (IOSE) [2] | potency in inhibiting prostate cancer cell line [3] | growth inhibition, brain cancer cell line LN229 (LN229) | blocking PELP1 oncogene interactions with estrogen receptor [4] | growth inhibition, triple negative breast cancer cell line [5] | growth inhibition, ovarian cancer cell line (ovarian cancer cell line) | growth inhibition, brain cancer cell line U87 (U87) | basal ARE activity in CWR22v1 cells [6] | expression of a panel of ARv7 regulated genes (Q-PCR) (ARv7 regulated genes)
1 | CC(C)COc1cc(C(N)=O)ccc1NC(=O)c1ccc(NC(=O)c2ccc([N+](=O)[O-])c(OCCO)c2)c(OCC(C)C)c1 [TK11] | higher specificity | higher specificity | significantly inhibited | weak potency | weak potency | high potency | very efficient in blocking | high potencies | high potency | high potency | – | –
2 | CC(O)(CS(=O)(=O)c1ccc(F)cc1)C(=O)Nc1ccc(C#N)c(C(F)(F)F)c1 (centres unmarked) [casodex, reference compound] | – | – | – | – | – | – | – | – | – | – | neither casodex nor MDV3100 could significantly affect | could not affect
3 | CNC(=O)c1ccc(N2C(=S)N(c3ccc(C#N)c(C(F)(F)F)c3)C(=O)C2(C)C)cc1F [MDV3100, reference compound] | – | – | – | – | – | – | – | – | – | – | neither casodex nor MDV3100 could significantly affect | could not affect

From US9458095B2, “Oligo-benzamide compounds and their use in treating cancers” (The Board of Regents of the University of Texas System, priority 2011, dated 2016)
